For 15 compounds, DC50 and remaining activity results are on record in article PMC6277434, “Discovery of a potent HMG-CoA reductase degrader that eliminates statin-induced reductase accumulation and lowers cholesterol” (Nature Communications, 2018).

Read-outs that look alike come from different tables or passages of the source.

The target in assay [1] is T1, HMGCR (TM1-8)-GFP (Cricetulus griseus, UniProt P00347).
T1 sequence (P00347 1-346): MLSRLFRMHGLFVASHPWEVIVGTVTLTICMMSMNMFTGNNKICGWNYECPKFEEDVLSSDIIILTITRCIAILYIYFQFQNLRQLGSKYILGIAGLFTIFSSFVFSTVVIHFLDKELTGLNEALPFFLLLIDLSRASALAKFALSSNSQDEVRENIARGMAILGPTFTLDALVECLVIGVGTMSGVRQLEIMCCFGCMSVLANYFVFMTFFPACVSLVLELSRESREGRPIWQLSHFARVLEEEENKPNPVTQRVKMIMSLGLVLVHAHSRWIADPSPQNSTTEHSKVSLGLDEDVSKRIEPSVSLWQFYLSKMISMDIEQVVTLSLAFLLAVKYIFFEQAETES

In assay [2] the target is T1, HMGCR (TM1-8)-GFP. Briefly: HMGCR (TM1-8)-GFP fluorescent assay (high-content imaging) in CHG cells.
[3] abbreviates: 16 h, read-out: HMGCR (TM1-8)-GFP fluorescent intensity, mean.
The mark [4] stands for this setting: read-out: Mean (HMGCR (TM1-8)-GFP signal relative to 0 μM = 100).

For `CC(C)CCC[C@@H](C)[C@H]1CCC2C3C(CC[C@@]21C)[C@@]1(C)CC[C@H](O)C(C)(C)C1=C[C@H]3O` (some centres unmarked) [Compound 36], at HMGCR (TM1-8)-GFP [1], the DC50 amounted to 11.9 µM. At HMGCR (TM1-8)-GFP [2] (setting [3]), the remaining activity at 0.01 µM came out at 106%, the remaining activity at 0.03 µM was determined as 91.7%, the remaining activity at 0.1 µM was determined as 108% and the remaining activity at 0.3 µM was found to be 91.3%. Moreover, at HMGCR (TM1-8)-GFP [2] (setting [3]), the remaining activity at 1 µM stood at 93.6%, the remaining activity at 3 µM amounted to 69.8%, the remaining activity at 10 µM came out at 58.6% and the remaining activity at 20 µM amounted to 37.2%.

For the compound `CCC(O)(CC)CCC[C@@H](C)C1CCC2C3C(CC[C@@]21C)[C@@]1(C)CC[C@H](O)C(C)(C)C1=C[C@@H]3O` (some centres unmarked) [Compound 80], the DC50 on HMGCR (TM1-8)-GFP [1] is 0.55 µM. At HMGCR (TM1-8)-GFP [2] (setting [4]), the remaining activity at 0.156 µM came out at 85.3%, the remaining activity at 0.313 µM turned out to be 75.8%, the remaining activity at 0.625 µM amounted to 58.1% and the remaining activity at 1.25 µM worked out at 33.7%. Moreover, on HMGCR (TM1-8)-GFP [2] (setting [4]), the remaining activity at 2.5 µM was 18.3%, the remaining activity at 5 µM was 12.1% and the remaining activity at 10 µM stood at 10.3%.

Compound `C[C@H](CCCO)C1CCC2C3C(CC[C@@]21C)[C@@]1(C)CC[C@H](O)C(C)(C)C1=C[C@@H]3O` (some centres unmarked) [Compound 51] returned a DC50 at HMGCR (TM1-8)-GFP [1] of 9.08 µM. For the same compound, on HMGCR (TM1-8)-GFP [2] (setting [4]), the remaining activity at 0.156 µM worked out at 98.3%, the remaining activity at 0.313 µM came to 102%, the remaining activity at 0.625 µM came out at 101% and the remaining activity at 1.25 µM came out at 92.8%. Further, on HMGCR (TM1-8)-GFP [2] (setting [4]), the remaining activity at 2.5 µM was 82.2%, the remaining activity at 5 µM amounted to 67.8% and the remaining activity at 10 µM was 47.7%.

For the compound `C=CCC(O)CCCC[C@@H](C)C1CCC2C3C(CC[C@@]21C)[C@@]1(C)CC[C@H](O)C(C)(C)C1=C[C@@H]3O` (some centres unmarked) [Compound 109], the DC50 at HMGCR (TM1-8)-GFP [1] came out at 0.91 µM. Further, at HMGCR (TM1-8)-GFP [2] (setting [4]), the remaining activity at 0.156 µM was determined as 91%, the remaining activity at 0.313 µM amounted to 76.5%, the remaining activity at 0.625 µM came to 54.8% and the remaining activity at 1.25 µM came out at 36.4%. Moreover, at HMGCR (TM1-8)-GFP [2] (setting [4]), the remaining activity at 2.5 µM was determined as 23.5%, the remaining activity at 5 µM worked out at 18.8% and the remaining activity at 10 µM came to 25.2%.

In turn, `C[C@H](CCCCO)C1CCC2C3C(CC[C@@]21C)[C@@]1(C)CC[C@H](O)C(C)(C)C1=C[C@@H]3O` (some centres unmarked) [Compound 74] gave a DC50 on HMGCR (TM1-8)-GFP [1] of 4.52 µM. On HMGCR (TM1-8)-GFP [2] (setting [4]), the remaining activity at 0.156 µM was 96.8%, the remaining activity at 0.313 µM is 94.2%, the remaining activity at 0.625 µM came out at 92.9% and the remaining activity at 1.25 µM is 83.2%. Besides, at HMGCR (TM1-8)-GFP [2] (setting [4]), the remaining activity at 2.5 µM stood at 62.6%, the remaining activity at 5 µM worked out at 44.4% and the remaining activity at 10 µM was 33%.

In the case of `C[C@H](CCCCCCO)C1CCC2C3C(CC[C@@]21C)[C@@]1(C)CC[C@H](O)C(C)(C)C1=C[C@@H]3O` (some centres unmarked) [Compound 113], the DC50 at HMGCR (TM1-8)-GFP [1] was found to be 1.72 µM. For the same compound, on HMGCR (TM1-8)-GFP [2] (setting [4]), the remaining activity at 0.156 µM was determined as 94.7%, the remaining activity at 0.313 µM is 91.3%, the remaining activity at 0.625 µM was 72.7% and the remaining activity at 1.25 µM is 57.4%. Besides, at HMGCR (TM1-8)-GFP [2] (setting [4]), the remaining activity at 2.5 µM is 35.8%, the remaining activity at 5 µM came to 22% and the remaining activity at 10 µM is 24.1%.

For `COC(=O)CCC[C@@H](C)C1CCC2C3C(CC[C@@]21C)[C@@]1(C)CC[C@H](O)C(C)(C)C1=C[C@@H]3O` (some centres unmarked) [Compound 72], the DC50 on HMGCR (TM1-8)-GFP [1] came out at 6.77 µM. Besides, on HMGCR (TM1-8)-GFP [2] (setting [4]), the remaining activity at 0.156 µM turned out to be 109%, the remaining activity at 0.313 µM stood at 104%, the remaining activity at 0.625 µM is 96.6% and the remaining activity at 1.25 µM turned out to be 89.7%. In addition, on HMGCR (TM1-8)-GFP [2] (setting [4]), the remaining activity at 2.5 µM amounted to 77.5%, the remaining activity at 5 µM turned out to be 56.3% and the remaining activity at 10 µM turned out to be 40.9%.

Regarding `C=CCC(O)(CC=C)CCCC[C@@H](C)C1CCC2C3C(CC[C@@]21C)[C@@]1(C)CC[C@H](O)C(C)(C)C1=C[C@@H]3O` (some centres unmarked) [Compound 102], at HMGCR (TM1-8)-GFP [1], the DC50 came to 1.92 µM. On HMGCR (TM1-8)-GFP [2] (setting [4]), the remaining activity at 0.156 µM came out at 108%, the remaining activity at 0.313 µM was 104%, the remaining activity at 0.625 µM is 86.9% and the remaining activity at 1.25 µM was 56.5%. Further, at HMGCR (TM1-8)-GFP [2] (setting [4]), the remaining activity at 2.5 µM is 37.2%, the remaining activity at 5 µM was found to be 31.7% and the remaining activity at 10 µM worked out at 31.8%.

As to `CC(C)CCC[C@@H](C)[C@H]1CCC2C3C(=NO)C=C4C(C)(C)[C@@H](O)CC[C@]4(C)C3CC[C@@]21C` (some centres unmarked) [Compound 34], the DC50 at HMGCR (TM1-8)-GFP [1] was found to be 60.8 µM. At HMGCR (TM1-8)-GFP [2] (setting [3]), the remaining activity at 0.03 µM was 99.1%, the remaining activity at 0.1 µM came out at 103%, the remaining activity at 0.3 µM is 93.6% and the remaining activity at 1 µM came out at 75.2%. Besides, at HMGCR (TM1-8)-GFP [2] (setting [3]), the remaining activity at 3 µM was 65.6%, the remaining activity at 10 µM was found to be 62%, the remaining activity at 20 µM stood at 65.8% and the remaining activity at 30 µM turned out to be 62.1%.

`C[C@H](CCCCC(C)(C)O)C1CCC2C3C(CC[C@@]21C)[C@@]1(C)CC[C@H](O)C(C)(C)C1=C[C@@H]3O` (some centres unmarked) [Compound 100] registered a DC50 at HMGCR (TM1-8)-GFP [1] of 0.51 µM. At HMGCR (TM1-8)-GFP [2] (setting [4]), the remaining activity at 0.156 µM is 78.6%, the remaining activity at 0.313 µM was determined as 69.4%, the remaining activity at 0.625 µM turned out to be 51.6% and the remaining activity at 1.25 µM came to 33.5%. Besides, at HMGCR (TM1-8)-GFP [2] (setting [4]), the remaining activity at 2.5 µM came out at 21.6%, the remaining activity at 5 µM was 14.8% and the remaining activity at 10 µM was determined as 12.4%.

At HMGCR (TM1-8)-GFP [1], `COCCCC[C@@H](C)C1CCC2C3C(CC[C@@]21C)[C@@]1(C)CC[C@H](O)C(C)(C)C1=C[C@@H]3O` (some centres unmarked) [Compound 78] yielded a DC50 of 1.85 µM. Besides, at HMGCR (TM1-8)-GFP [2] (setting [4]), the remaining activity at 0.156 µM came out at 105%, the remaining activity at 0.313 µM came to 98%, the remaining activity at 0.625 µM is 81.1% and the remaining activity at 1.25 µM came out at 60.7%. In addition, at HMGCR (TM1-8)-GFP [2] (setting [4]), the remaining activity at 2.5 µM worked out at 36.9%, the remaining activity at 5 µM turned out to be 21.4% and the remaining activity at 10 µM was determined as 15.7%.

As to `C=CCC(O)CC[C@@H](C)C1CCC2C3C(CC[C@@]21C)[C@@]1(C)CC[C@H](O)C(C)(C)C1=C[C@@H]3O` (some centres unmarked) [Compound 65], the DC50 at HMGCR (TM1-8)-GFP [1] stood at 2.33 µM. Further, on HMGCR (TM1-8)-GFP [2] (setting [4]), the remaining activity at 0.156 µM amounted to 108%, the remaining activity at 0.313 µM was 103%, the remaining activity at 0.625 µM is 93.6% and the remaining activity at 1.25 µM turned out to be 78.4%. Besides, at HMGCR (TM1-8)-GFP [2] (setting [4]), the remaining activity at 2.5 µM was found to be 40.4%, the remaining activity at 5 µM turned out to be 22.1% and the remaining activity at 10 µM turned out to be 14%.

Compound `COC(=O)CC[C@@H](C)C1CCC2C3C(CC[C@@]21C)[C@@]1(C)CC[C@H](O)C(C)(C)C1=C[C@@H]3O` (some centres unmarked) [Compound 49] had a DC50 at HMGCR (TM1-8)-GFP [1] of 6.67 µM. At HMGCR (TM1-8)-GFP [2] (setting [4]), the remaining activity at 0.156 µM is 93%, the remaining activity at 0.313 µM came to 100%, the remaining activity at 0.625 µM is 100% and the remaining activity at 1.25 µM turned out to be 93%. In addition, on HMGCR (TM1-8)-GFP [2] (setting [4]), the remaining activity at 2.5 µM was determined as 78.9%, the remaining activity at 5 µM worked out at 58.3% and the remaining activity at 10 µM is 37.6%.

Regarding `CCC(O)(CC)CCCC[C@@H](C)C1CCC2C3C(CC[C@@]21C)[C@@]1(C)CC[C@H](O)C(C)(C)C1=C[C@@H]3O` (some centres unmarked) [Compound 101], the DC50 at HMGCR (TM1-8)-GFP [1] was found to be 0.59 µM. Moreover, at HMGCR (TM1-8)-GFP [2] (setting [4]), the remaining activity at 0.156 µM amounted to 86.6%, the remaining activity at 0.313 µM is 74%, the remaining activity at 0.625 µM was determined as 52.3% and the remaining activity at 1.25 µM amounted to 35.6%. Besides, at HMGCR (TM1-8)-GFP [2] (setting [4]), the remaining activity at 2.5 µM was found to be 22.8%, the remaining activity at 5 µM came to 15.2% and the remaining activity at 10 µM was found to be 15.2%.

`CCC(O)CCCC[C@@H](C)C1CCC2C3C(CC[C@@]21C)[C@@]1(C)CC[C@H](O)C(C)(C)C1=C[C@@H]3O` (some centres unmarked) [Compound 108] came in with a DC50 at HMGCR (TM1-8)-GFP [1] of 1.03 µM. At HMGCR (TM1-8)-GFP [2] (setting [4]), the remaining activity at 0.156 µM turned out to be 90.7%, the remaining activity at 0.313 µM worked out at 77.2%, the remaining activity at 0.625 µM is 56.5% and the remaining activity at 1.25 µM was found to be 39.2%. In addition, on HMGCR (TM1-8)-GFP [2] (setting [4]), the remaining activity at 2.5 µM worked out at 29.4%, the remaining activity at 5 µM was 25.5% and the remaining activity at 10 µM was 18.6%.
